Twelve molecules from ChEMBL document CHEMBL1201862, “PubChem BioAssay data set” (2004) can be followed below.

Broadly, the GI50 is the concentration that inhibits growth by half.

Molecules are shown by their SMILES.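 Exposure lasted 48 hours, with cells grown in 96-well plates and compounds tested at five concentrations. GI50: concentration for 50% inhibition of growth.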 The source made the active and inactive calls. No stated cut-off is given here; in the data, active = GI50 up to about 1.1 µM and inactive = higher.

Among the test systems are UO-31; K562; SF-539; SN12C; U-251; SK-OV-3; TK-10; IGROV-1; NCI-H226; LXFL 529; HCT-15; A549; Malme-3M; SK-MEL-2; HL-60; A498; MDA-MB-231; PC-3; NCI/ADR-RES; MCF7.
Assay in all cases: DTP human tumour cell line panel, 48 h

On to `COc1nc(OC)c2c(=O)oc(-c3ccccc3)cc2n1`, for which the GI50 with UO-31, in the assay on K562, in the assay with SF-539, in the assay with SN12C, in the assay on U-251 and in the assay with SK-OV-3 was > 100 µM (inactive) throughout. The GI50 with TK-10 was > 100 µM (inactive); in the assay with IGROV-1, > 100 µM (inactive); in the assay with NCI-H226 it was > 100 µM (inactive); with LXFL 529 it was > 100 µM (inactive); in the assay with HCT-15, more than 100 µM; with A549, > 100 µM (inactive). Moreover, the GI50 with Malme-3M and in the assay on SK-MEL-2 was > 100 µM (inactive) each time.

Turning to `CCOC(=O)c1cc(/C=C/C(C)=C/C(=O)OC)oc1C`, the GI50 with UO-31, in the assay with K562, in the assay on SF-539, in the assay on U-251, in the assay on HL-60 and in the assay with SK-OV-3 was > 100 µM (inactive) each time. For the same molecule, the GI50 in the assay with TK-10 is > 100 µM (inactive); in the assay on IGROV-1 it was > 100 µM (inactive); with LXFL 529, > 100 µM (inactive); in the assay with HCT-15, more than 100 µM; in the assay on A549, > 100 µM (inactive); in the assay with Malme-3M it was > 100 µM (inactive). Besides, the GI50 in the assay on SK-MEL-2 is > 100 µM (inactive).

Take `CCOC(=O)C1=C(Nc2cccc3ccccc23)OCC1=O`: the GI50 in the assay with UO-31, in the assay on K562, in the assay on SF-539, in the assay on SN12C, in the assay with A498 and with U-251 was > 100 µM (inactive) each time. The GI50 in the assay with SK-OV-3, with IGROV-1, with NCI-H226, with LXFL 529, in the assay on A549 and in the assay on Malme-3M was > 100 µM (inactive) each time. Further, the GI50 with SK-MEL-2 was > 100 µM (inactive).

Take `CC(=NNC(=S)Nc1ccccc1)c1cccc(C(C)=NNC(=S)Nc2ccccc2)n1`: the GI50 was 2.34 µM (inactive) in the assay with UO-31; 3.04 µM (inactive) in the assay with K562; 1.47 µM (inactive) in the assay with SF-539; 4.48 µM (inactive) in the assay on SN12C; 7.55 µM (inactive) in the assay with A498; 4.99 µM (inactive) in the assay on U-251. For the same molecule, the GI50 with HL-60 is 0.189 µM (active); in the assay with SK-OV-3, 5.98 µM (inactive); with TK-10, 4.24 µM (inactive); in the assay on MDA-MB-231, 4.62 µM (inactive); in the assay on IGROV-1, 2.08 µM (inactive); in the assay with PC-3, 5.21 µM (inactive). The GI50 with NCI-H226 is 1.06 µM (active); in the assay with NCI/ADR-RES, 1.61 µM (inactive); in the assay on MCF7, 3.11 µM (inactive); with HCT-15, 4.58 µM; with A549, 3.94 µM (inactive); in the assay on Malme-3M, 4.57 µM (inactive). In addition, in the assay on SK-MEL-2, the GI50 was 41.1 µM (inactive).

Take `COc1ccc2c3c1OC1C(=O)C=CC4(O)C(C2)NCC[C@@]314` (some centres not stated): the GI50 in the assay on UO-31 is 2.1 µM (inactive); with K562 it was 2.51 µM (inactive); in the assay on SF-539 it was 1.55 µM (inactive); in the assay with SN12C it was 1.51 µM (inactive); with A498, 3.29 µM (inactive); with U-251, 2.13 µM (inactive). Further, the GI50 in the assay with HL-60 is 1.8 µM (inactive); with SK-OV-3 it was 3.18 µM (inactive); in the assay with TK-10, 1.68 µM (inactive); in the assay on MDA-MB-231, 2.95 µM (inactive); in the assay on IGROV-1, 5.71 µM (inactive); with PC-3, 3.3 µM (inactive). In addition, the GI50 with NCI-H226 was 8.75 µM (inactive); with NCI/ADR-RES, 4 µM (inactive); in the assay on MCF7, 1.98 µM (inactive); with HCT-15 it was 2.11 µM; in the assay with A549, 4.61 µM (inactive); in the assay on Malme-3M, 0.964 µM (active). Besides, the GI50 in the assay on SK-MEL-2 is 2.4 µM (inactive).

Turning to `COC(=O)c1c(O)ccc2c1c1cc3ccccc3cc1n2Cc1cc(OC)cc(OC)c1`, the GI50 is 3.17 µM (inactive) in the assay on UO-31; 1.96 µM (inactive) with K562; 1.86 µM (inactive) in the assay with SF-539; 7.85 µM (inactive) in the assay with SN12C; 9.02 µM (inactive) in the assay with A498; 4.45 µM (inactive) in the assay on U-251. The GI50 was 2.92 µM (inactive) with HL-60; 1.43 µM (inactive) in the assay with SK-OV-3; > 23.2 µM (inactive) with TK-10; 6.55 µM (inactive) in the assay on MDA-MB-231; 0.678 µM (active) with IGROV-1; 2.46 µM (inactive) in the assay on PC-3. In addition, the GI50 was 14.9 µM (inactive) with NCI-H226; 1.4 µM (inactive) with NCI/ADR-RES; 1.73 µM (inactive) with MCF7; 1.46 µM in the assay on HCT-15; 3.37 µM (inactive) in the assay on A549; 1.22 µM (inactive) in the assay on Malme-3M. Moreover, the GI50 in the assay on SK-MEL-2 is 1.22 µM (inactive).

For `CN(C)c1ccc(/C=C/C(=O)c2cc(C(C)(C)C)c(O)c(C(C)(C)C)c2)cc1`, the GI50 in the assay on UO-31 was 1.61 µM (inactive); in the assay on K562, 0.979 µM (active); in the assay on SF-539, 0.625 µM (active); in the assay with SN12C it was 3.13 µM (inactive); in the assay with A498 it was 1.91 µM (inactive); with U-251, 0.946 µM (active). Besides, the GI50 was 2.29 µM (inactive) in the assay with HL-60; 1.74 µM (inactive) with SK-OV-3; 1.23 µM (inactive) with TK-10; 2.44 µM (inactive) in the assay on MDA-MB-231; 4.15 µM (inactive) in the assay on IGROV-1; 1.22 µM (inactive) in the assay with PC-3. For the same molecule, the GI50 with NCI-H226 is 1.85 µM (inactive); in the assay on NCI/ADR-RES it was 0.796 µM (active); with MCF7, 0.469 µM (active); in the assay with HCT-15, 1.15 µM; in the assay on A549 it was 2.32 µM (inactive); in the assay with Malme-3M, > 100 µM (inactive). In addition, in the assay on SK-MEL-2, the GI50 is 1.08 µM (active).

Take `O=C(O)C1=NN(c2ccc(S(=O)(=O)O)cc2)C2(C1)SCC(=O)N2c1nc2ccccc2s1` (configuration not stated): the GI50 in the assay on UO-31, with K562, in the assay with SF-539, in the assay on SN12C, in the assay on A498 and with U-251 was > 100 µM (inactive) in each case. The GI50 with HL-60, in the assay on SK-OV-3, with TK-10, in the assay with MDA-MB-231, with IGROV-1 and in the assay on PC-3 was > 100 µM (inactive) in each case. Further, the GI50 with NCI-H226 was 5.3 µM (inactive); in the assay on NCI/ADR-RES, > 100 µM (inactive); in the assay on MCF7 it was > 100 µM (inactive); with HCT-15, more than 100 µM; in the assay with A549, > 100 µM (inactive); with Malme-3M, > 100 µM (inactive). In addition, the GI50 in the assay with SK-MEL-2 is > 100 µM (inactive).

Regarding `CCNC(=S)N/N=C(\C)c1cccc(C)n1`, the GI50 with UO-31 is 3.71 µM (inactive); with K562, 1.78 µM (inactive); in the assay with SF-539, 18.7 µM (inactive); in the assay with SN12C, 11.8 µM (inactive); with A498, 13.5 µM (inactive); with U-251, 7.43 µM (inactive). Further, the GI50 with HL-60 is 3.47 µM (inactive); in the assay with SK-OV-3, 13.1 µM (inactive); with TK-10, > 100 µM (inactive); in the assay with MDA-MB-231, 7.36 µM (inactive); in the assay with IGROV-1 it was 4.36 µM (inactive); with PC-3, 5.87 µM (inactive). In addition, the GI50 in the assay with NCI-H226 was 11 µM (inactive); in the assay with NCI/ADR-RES, 8.45 µM (inactive); in the assay on MCF7 it was 3.32 µM (inactive); in the assay with HCT-15, 7.18 µM; in the assay with A549 it was 20.6 µM (inactive); with Malme-3M, 2.39 µM (inactive). Besides, the GI50 in the assay with SK-MEL-2 was 42.8 µM (inactive).

As for `Cc1ccc(C)c(COCCOCn2cc(Br)c(N)nc2=O)c1`, the GI50 in the assay on UO-31, in the assay on K562, with SF-539, in the assay on SN12C, in the assay on A498 and in the assay on U-251 was > 100 µM (inactive) throughout. Also, the GI50 with HL-60 is 14 µM (inactive); in the assay on SK-OV-3, > 100 µM (inactive); with TK-10, > 100 µM (inactive); in the assay with MDA-MB-231, > 100 µM (inactive); in the assay with IGROV-1 it was > 100 µM (inactive); in the assay on PC-3, > 100 µM (inactive). In addition, the GI50 in the assay on NCI-H226 was > 100 µM (inactive); with NCI/ADR-RES, > 100 µM (inactive); in the assay with MCF7 it was > 100 µM (inactive); in the assay with HCT-15 it was more than 100 µM; in the assay with A549 it was > 100 µM (inactive); in the assay with Malme-3M it was > 100 µM (inactive). Moreover, the GI50 in the assay with SK-MEL-2 was > 100 µM (inactive).

`CC(O)C1(CNc2cc(Cl)nc(N)n2)CC(CCc2ccccc2)C1` (configuration not stated): the GI50 with UO-31 is 12.1 µM (inactive); in the assay on K562 it was 6.78 µM (inactive); with SF-539, 16.6 µM (inactive); in the assay with SN12C it was 7.66 µM (inactive); with A498, 13.7 µM (inactive); in the assay with U-251, 14.5 µM (inactive). Besides, the GI50 in the assay on HL-60 is 14.1 µM (inactive); with SK-OV-3, 15.1 µM (inactive); with TK-10, 16.1 µM (inactive); with MDA-MB-231 it was 10.7 µM (inactive); in the assay on IGROV-1, 13.6 µM (inactive); in the assay with PC-3, 11.6 µM (inactive). The GI50 with NCI-H226 is 14.7 µM (inactive); in the assay with NCI/ADR-RES, 4.1 µM (inactive); with MCF7, 0.108 µM (active); in the assay on HCT-15, 11.6 µM; in the assay with A549, 10.6 µM (inactive); in the assay on Malme-3M, 13.3 µM (inactive). In addition, the GI50 in the assay on SK-MEL-2 is 17.2 µM (inactive).

Take `Nc1cccc2c1C(=O)c1cccc(N)c1C2=O`: the GI50 in the assay with UO-31, in the assay on K562, in the assay on SF-539, in the assay with SN12C, with A498 and in the assay with U-251 was > 100 µM (inactive) each time. Moreover, the GI50 is > 100 µM (inactive) in the assay with SK-OV-3; > 100 µM (inactive) in the assay on TK-10; > 100 µM (inactive) in the assay on IGROV-1; > 100 µM (inactive) in the assay on NCI-H226; > 100 µM (inactive) with LXFL 529; more than 100 µM in the assay on HCT-15. Besides, the GI50 in the assay on A549, in the assay with Malme-3M and with SK-MEL-2 was > 100 µM (inactive) in each case.
